Here are results for three molecules from patent publication US6767715B2, “Nitroso compounds and their use as spin traps” (Randox Laboratories Ltd., priority 2000, dated 2004).

Entries after “also recorded” stand apart in the source; their conditions may differ.

A short description of series [1]: Spin trapping of SO3− (horseradish peroxidase/H2O2/sulphite), ESR detection. The following applies: for optimal concentration of spin trap: 25 min incubation at room temperature; for signal/marker ratio: at optimal concentration (DBNBS 17.72 mM, DCNBS 20-25 mM). The method, then:
(§1) ESR spectra were obtained using a prototype spectrometer (Jeol (U.K) Ltd., Welwyn Garden City, England) equipped with a TE011 cylindrical cavity. Samples were analysed at room temperature in a WG-LC-11 quartz flat cell (Wilmad-Glass, Buena, N.J.). In general the instrument parameters were: microwave frequency 9.2 GHz, microwave power 4 mW, centre field (CF) 336.7 mT, sweep width (SW) ±5 mT, number of data points 4095, modulation frequency 100 kHz. For the spin traps reacted with horseradish peroxidase/H2O2/sulphite: sweep time 200 s, time constraint 0.1 s, modulation width 0.05. For the spin traps reacted with the oxidant and NO; sweep time 150 s, time constraint 0.3 s, modulation width 0.2 mT. A JEOL ES-DM1 digital manganese oxide marker (0.03 mm of the glass tube inserted per unit on the dial setting) with a dial setting of 500 was used to ensure the reproducibility between samples and to identify the position of the signals in the microwave field.
Solutions of the spin traps DBNBS, DCNBS and DMNBS (40 mM) (25, 50, […], 110.75, 125 and 156.25 μl for final concentrations of 4, 8, 14.68, 17.72, 20 and 25 mM in PBS) were added to 8 μl horseradish peroxidase (91 μM in PBS), 8 μl K2SO3 (100 mM in water) and 12.5 μl H2O2 (5 mM in PBS). The difference in the volume comprised PBS (pH 7.4). The final volume of the reaction mixture was 250 μl. The reaction mixture was mixed thoroughly and analysed by ESR spectroscopy after 25 min incubation at room temperature. Controls were run using individual reactants as well as the reaction mixture above in the absence of the spin traps.

Series [2] is described as follows: Reaction of spin traps with nitric oxide, ESR detection. The settings on record: for spin trap concentration giving maximum signal intensity / plateau / time at which reaction with NO reaches a maximum: NO 1 mM; for spin trap concentration giving maximum signal intensity / plateau: DBNBS incubated 26 hr, DCNBS 22 hr; for time at which reaction with NO reaches a maximum / limit of detection for NO (S/N ratio equals 3) / limit of quantitation for NO (S/N ratio equals 10): spin trap 0.15M; for time at which reaction with NO reaches a maximum: Tris-HCl pH 7.4; for limit of detection for NO (S/N ratio equals 3) / limit of quantitation for NO (S/N ratio equals 10): DBNBS 50 hr, DCNBS 20 hr, linear part of curve 0 to 10 μM. The procedure:
as §1
The apparatus shown in FIG. 1 was flushed with nitrogen for 15 min. The vacutainer containing deionised water (4 ml) was then connected to the system and flushed with nitrogen for a further 15 min, to remove any oxygen present in the system, and therefore to prevent the formation of nitrogen dioxide. The NO gas was bubbled through the deionised water via the system for 45 min. The small amount of nitrogen dioxide present in the pressurised NO container was removed by bubbling through two bottles of 5M NaOH. The gas was then bubbled through a scrubbing bottle containing deionised water to remove any alkaline aerosol contamination. Any excess of NO after the deionised water step was bubbled through a scrubbing bottle containing 1M potassium permanganate/1M NaOH to prevent excess NO escaping from the fume hood. The concentration of NO in the resulting NO-saturated water was taken to be 2.0 mM.
Samples of DBNBS, DCNBS and DMNBS were weighed into vacutainers and evacuated. Tris-HCl buffer, 0.01M, pH 7.4, was deoxygenated by bubbling with nitrogen gas for 15 min. The deoxygenated buffer was added to the spin traps by a gas tight syringe to give a final spin trap concentration of 0.30M. The spin trap solution was briefly flushed with nitrogen and was then ready for use.
NO-saturated water (1 ml) was added to 1 ml of each of the spin trap solutions (DBNBS, DCNBS and DMNBS). The final concentrations of the spin traps were 0.15M and NO 1 mM. Parallel blanks were carried out by adding 1 ml of deoxygenated water to the spin trap solutions. At each time point samples were taken from test solutions and blanks for ESR spectroscopic analysis and the blank was substracted from the spectra.
The spin trap solutions were prepared as above to give final concentrations of 0.05, 0.1, 0.15, 0.2 and 0.25M in the reaction mixtures and the parallel blanks. The saturated NO solution (0.5 ml, final concentration 1 mM) was added to the test solutions and the deoxygenated water (0.5 ml) was added to the blanks. The reaction mixtures with DBNBS were incubated for 26 hr. while those with DCNBS were incubated for 22 hr. before analysis by ESR spectroscopy. The blanks were subtracted from their parallel test spectra respectively.
The concentration of NO in NO saturated water is taken to be 2.0 mM. This NO solution was diluted with deoxygenated water to give final concentrations in the reaction mixture of 0, 0.25, 0.5, 1, 2.5, 5, 10, 50 and 100 μM. The NO solution was added to DBNBS and to DCNBS to give a final spin trap concentration of 0.15M. The blank (or zero point) was ran by adding 0.5 ml of deoxygenated deionised water to the spin trap solutions. The reaction mixture containing DBNBS was incubated for 50 hr, and that containing DCNBS was incubated for 20 hr. The signal to noise ratio was calculated from each spectrum. All withdrawals and additions of solutions were carried out using a gas-tight syringe.

Series [3] can be described thus: Reaction of spin traps with oxidant in CAPD dialysate, ESR detection. The settings on record: oxidant system; for final nominal concentration at which spin trap reached an excess: 60 μl dialysate, 25 min at room temperature; for signal/marker ratio: DBNBS at 1.2 mM, DCNBS at 2.5 mM. The procedure: as §1
Dialysate from a patient with renal failure on Continuous Ambulatory Peritoneal Dialysis (CAPD) was used for this study. The dialysate was collected when the dialysate bag was changed.
Solutions of 10 mM DBNBS and DCNBS (5, 8, 12, 25 and 30 μl for final concentrations of 0.5, 0.8, 1.2, 2.5 and 3.0 mM) were added to 60 μl of the dialysate. The difference in volume comprised PBS. The reaction mixture was mixed thoroughly and analysed by ESR spectroscopy after 25 min incubation at room temperature.

Series [4] can be described thus: Solubility of the spin trap in aqueous systems. The class given is physicochemical. The following applies: Sodium Salt.

For `O=Nc1c(Br)cc(S(=O)(=O)[O-])cc1Br.[Na+]` [DBNBS, 3,5-dibromo-4-nitrosobenzenesulphonate, sodium salt, reference compound], in series [1] (SO3− system), the “optimal concentration of spin trap” value came out at 17.72 mM and the signal/marker ratio came out at 3.33. Besides, in series [2], the “spin trap concentration giving maximum signal intensity / plateau” value came to 0.15 M, the “time at which reaction with NO reaches a maximum” value (“time … with NO reaches a maximum” below) was “approximately 50 hr”, the “limit of detection for NO (S/N ratio equals 3)” value was 0.23 µM and the “limit of quantitation for NO (S/N ratio equals 10)” value was determined as 0.92 µM. Besides, in series [3], the “final nominal concentration at which spin trap reached an excess” value is “ca. 1.2 mM” and the signal/marker ratio is on record as 0.516.
Turning to `O=Nc1c(Cl)cc(S(=O)(=O)[O-])cc1Cl.[Na+]` [DCNBS, 3,5-Dichloro-4-nitrosobenzenesulphonate, Sodium Salt], in series [1] (SO3− system), the “optimal concentration of spin trap” value was 20 to 25 mM and the signal/marker ratio is on record as 10.62. Further, the “sensitivity relative to DBNBS” value in series [1] (SO3− system, at optimal concentrations) was determined as 3 times. Moreover, in series [2], the “spin trap concentration giving maximum signal intensity / plateau” value was 0.05 to 0.40 M, the “time … with NO reaches a maximum” value fell in the range of 20 to 24 h, the “limit of detection for NO (S/N ratio equals 3)” value amounted to 4.06 µM and the “limit of quantitation for NO (S/N ratio equals 10)” value was 17.30 µM. In series [3], the “final nominal concentration at which spin trap reached an excess” value came out at 2.5 mM and the signal/marker ratio was found to be 0.521. Also, in series [4], the “solubility compared with DBNBS” value is “improved solubility; also recorded: more soluble than DBNBS”.
Regarding `Cc1cc(S(=O)(=O)[O-])cc(C)c1N=O.[Na+]` [DMNBS, 3,5-Dimethyl-4-nitrosobenzenesulphonate, Sodium Salt], the “ESR signal height for SO3− adduct relative to DBNBS-d2-15N” value in series [1] (SO3− generated from HRP, H2O2, SO3 2−) is “more than three times”. For the same molecule, the “time … with NO reaches a maximum” value in series [2] lay in the range of 24 to 28 h.
